From patent US20260285850A1, “SUBSTITUTED OXAZOLIDINONES AND IMIDAZOLINONES AS HERBICIDES” (FMC CORPORATION, priority 2023, published 2026)

Legend:
Format in all cases: in vivo
[1] = tested on: barnyardgrass (Echinochloa crus-galli); test: Test A preemergence soil spray, visual injury rating 0-100; settings: 10 days
Description: (§1) Seeds of plant species selected from barnyardgrass (Echinochloa crus-galli), blackgrass (Alopecurus myosuroides), corn (Zea mays), foxtail, giant (giant foxtail, Setaria faberi), green foxtail (Setaria viridis), goosegrass (Eleusine indica), kochia (Bassia scoparia), oat, wild (wild oat, Avena fatua), palmer (palmer amaranth, palmer pigweed, Amaranthus palmeri), ragweed (common ragweed, Ambrosia artemisiifolia), ryegrass, Italian (italian ryegrass, Lolium multiflorum), soybean (Glycine max) and wheat (Triticum aestivum) were planted into a blend of loam soil and sand and treated preemergence with a directed soil spray using test chemicals formulated in a non-phytotoxic solvent mixture which included a surfactant.
(§2) At the same time, plants selected from these crops and weed species and also galium (catchweed bedstraw, Galium aparine) and horseweed (Erigeron canadensis) were planted in pots containing the same blend of loam soil and sand and treated with postemergence applications of test chemicals formulated in the same manner. Plants ranged in height from 2 to 10 cm and were in the one- to two-leaf stage for the postemergence treatment. Treated plants and untreated controls were maintained in a greenhouse for 10 days, after which time all treated plants were compared to untreated controls and visually evaluated for injury. Plant response ratings, summarized in Table A, are based on a 0 to 100 scale where 0 is no effect and 100 is complete control. A dash (-) response means no test result.

[2] = tested on: blackgrass (Alopecurus myosuroides); test: as above; settings: 10 days
Description: as §1, §2

corn (Zea mays) [3] = test: as above; settings: 10 days
Description: as §1, §2

kochia (Bassia scoparia) [4] = test: as above; settings: 10 days
Description: as §1, §2

[5] = tested on: oat, wild (wild oat, Avena fatua); test: as above; settings: 10 days
Description: as §1, §2

[6] = tested on: palmer (palmer amaranth, palmer pigweed, Amaranthus palmeri); test: as above; settings: 10 days
Description: as §1, §2

[7] = tested on: ragweed (common ragweed, Ambrosia artemisiifolia); test: as above; settings: 10 days
Description: as §1, §2

[8] = tested on: ryegrass, Italian (italian ryegrass, Lolium multiflorum); test: as above; settings: 10 days
Description: as §1, §2

soybean (Glycine max) [9] = test: as above; settings: 10 days
Description: as §1, §2

[10] = tested on: wheat (Triticum aestivum); test: as above; settings: 10 days
Description: as §1, §2

[11] = tested on: barnyardgrass (Echinochloa crus-galli); test: Test A postemergence application, visual injury rating 0-100; settings: Postemergence
Description: as §1, §2

[12] = tested on: blackgrass (Alopecurus myosuroides); test: as above; settings: Postemergence
Description: as §1, §2

corn (Zea mays) [13] = test: as above; settings: Postemergence
Description: as §1, §2

[14] = tested on: galium (catchweed bedstraw, Galium aparine); test: as above; settings: Postemergence
Description: as §1, §2

[15] = tested on: horseweed (Erigeron canadensis); test: as above; settings: Postemergence
Description: as §1, §2

kochia (Bassia scoparia) [16] = test: as above; settings: Postemergence
Description: as §1, §2

[17] = tested on: oat, wild (wild oat, Avena fatua); test: as above; settings: Postemergence
Description: as §1, §2

[18] = tested on: palmer (palmer amaranth, palmer pigweed, Amaranthus palmeri); test: as above; settings: Postemergence
Description: as §1, §2

[19] = tested on: ragweed (common ragweed, Ambrosia artemisiifolia); test: as above; settings: Postemergence
Description: as §1, §2

[20] = tested on: ryegrass, Italian (italian ryegrass, Lolium multiflorum); test: as above; settings: Postemergence
Description: as §1, §2

soybean (Glycine max) [21] = test: as above; settings: Postemergence
Description: as §1, §2

[22] = tested on: wheat (Triticum aestivum); test: as above; settings: Postemergence
Description: as §1, §2

[23] = 31 g ai/ha, greenhouse 10 days, 0 no effect, 100 complete control
[24] = 125 g ai/ha, 10 days, 0 is no effect, 100 is complete control
[25] = 31 g ai/ha, 0 = no effect, 100 = complete control
[26] = 125 g ai/ha, 0 = no effect, 100 = complete control

## CC1(C(=O)NC2C=CC(C(=O)NS(=O)(=O)c3ccccc3)C2)CN(c2cc(Cl)cc(Cl)c2)C(=O)O1 (stereo not drawn) [Compound 86]
[1]; 31 g ai/ha, 0 to 100 scale
  Barnyardgrass plant response rating: 30
[2]; 31 g ai/ha, 0 to 100 scale
  Blackgrass plant response rating: 0
Corn (Zea mays) [3]; 31 g ai/ha, 0 to 100 scale
  Corn plant response rating: 0
Kochia (Bassia scoparia) [4]; 31 g ai/ha, 0 to 100 scale
  Kochia plant response rating: 40
[5]; 31 g ai/ha, 0 to 100 scale
  Oat, Wild plant response rating: 0
[6]; 31 g ai/ha, 0 to 100 scale
  Amaranth, Palmer (Pigweed, Palmer) plant response rating: 70
[7]; 31 g ai/ha, 0 to 100 scale
  Ragweed plant response rating: 10
[8]; 31 g ai/ha, 0 to 100 scale
  Ryegrass, Italian plant response rating: 0
Soybean (Glycine max) [9]; 31 g ai/ha, 0 to 100 scale
  Soybean plant response rating: 0
[10]; 31 g ai/ha, 0 to 100 scale
  Wheat plant response rating: 0
[11]; [23]
  Barnyardgrass plant response rating (0 to 100 scale): 90
[11]; [24]
  Barnyardgrass plant response rating (0 to 100 scale): 90
[12]; [23]
  Blackgrass plant response rating (0 to 100 scale): 30
[12]; [24]
  Blackgrass plant response rating (0 to 100 scale): 70
Corn (Zea mays) [13]; [23]
  Corn plant response rating (0 to 100 scale): 90
Corn (Zea mays) [13]; [24]
  Corn plant response rating (0 to 100 scale): 100
[14]; [23]
  Galium plant response rating (0 to 100 scale): 70
[14]; [24]
  Galium plant response rating (0 to 100 scale): 80
[15]; [23]
  Horseweed plant response rating (0 to 100 scale): 40
[15]; [24]
  Horseweed plant response rating (0 to 100 scale): 50
Kochia (Bassia scoparia) [16]; [23]
  Kochia plant response rating (0 to 100 scale): 80
Kochia (Bassia scoparia) [16]; [24]
  Kochia plant response rating (0 to 100 scale): 90
[17]; [23]
  Oat, Wild plant response rating (0 to 100 scale): 60
[17]; [24]
  Oat, Wild plant response rating (0 to 100 scale): 90
[18]; [23]
  Amaranth, Palmer / Pigweed, Palmer plant response rating (0 to 100 scale): 90
[18]; [24]
  Amaranth, Palmer / Pigweed, Palmer plant response rating (0 to 100 scale): 90
[19]; [23]
  Ragweed plant response rating (0 to 100 scale): 60
[19]; [24]
  Ragweed plant response rating (0 to 100 scale): 80
[20]; [23]
  Ryegrass, Italian plant response rating (0 to 100 scale): 60
[20]; [24]
  Ryegrass, Italian plant response rating (0 to 100 scale): 70
Soybean (Glycine max) [21]; [23]
  Soybean plant response rating (0 to 100 scale): 20
Soybean (Glycine max) [21]; [24]
  Soybean plant response rating (0 to 100 scale): 60
[22]; [23]
  Wheat plant response rating (0 to 100 scale): 60
[22]; [24]
  Wheat plant response rating (0 to 100 scale): 80

## CC1(C(=O)NC2C=CC(C(=O)NS(=O)(=O)C(C)(C)C)C2)CN(c2cc(F)cc(F)c2)C(=O)O1 (stereo not drawn) [Compound 80]
[1]; [25]
  Barnyardgrass plant response rating (0-100): 0
[1]; [26]
  Barnyardgrass plant response rating (0 to 100 scale): 40
[2]; [25]
  Blackgrass plant response rating (0-100): 0
[2]; [26]
  Blackgrass plant response rating (0 to 100 scale): 30
Corn (Zea mays) [3]; [25]
  Corn plant response rating (0-100): 0
Corn (Zea mays) [3]; [26]
  Corn plant response rating (0 to 100 scale): 0
Kochia (Bassia scoparia) [4]; [25]
  Kochia plant response rating (0-100): 0
Kochia (Bassia scoparia) [4]; [26]
  Kochia plant response rating (0 to 100 scale): 70
[5]; [25]
  Oat, Wild plant response rating (0-100): 0
[5]; [26]
  Oat, Wild plant response rating (0 to 100 scale): 30
[6]; [25]
  Amaranth, Palmer plant response rating (0-100): 0
[6]; [26]
  Amaranth, Palmer plant response rating (0 to 100 scale): 50
[7]; [25]
  Ragweed plant response rating (0-100): 10
[7]; [26]
  Ragweed plant response rating (0 to 100 scale): 0
[8]; [25]
  Ryegrass, Italian plant response rating (0-100): 0
[8]; [26]
  Ryegrass, Italian plant response rating (0 to 100 scale): 60
Soybean (Glycine max) [9]; [25]
  Soybean plant response rating (0-100): 0
Soybean (Glycine max) [9]; [26]
  Soybean plant response rating (0 to 100 scale): 10
[10]; [25]
  Wheat plant response rating (0-100): 0
[10]; [26]
  Wheat plant response rating (0 to 100 scale): 50
[11]; [23]
  Barnyardgrass plant response rating (0 to 100 scale): 80
[11]; [24]
  Barnyardgrass plant response rating (0 to 100 scale): 90
[12]; [23]
  Blackgrass plant response rating (0 to 100 scale): 30
[12]; [24]
  Blackgrass plant response rating (0 to 100 scale): 70
Corn (Zea mays) [13]; [23]
  Corn plant response rating (0 to 100 scale): 30
Corn (Zea mays) [13]; [24]
  Corn plant response rating (0 to 100 scale): 100
[14]; [23]
  Galium plant response rating (0 to 100 scale): 80
[14]; [24]
  Galium plant response rating (0 to 100 scale): 80
[15]; [23]
  Horseweed plant response rating (0 to 100 scale): 10
[15]; [24]
  Horseweed plant response rating (0 to 100 scale): 70
Kochia (Bassia scoparia) [16]; [23]
  Kochia plant response rating (0 to 100 scale): 70
Kochia (Bassia scoparia) [16]; [24]
  Kochia plant response rating (0 to 100 scale): 80
[17]; [23]
  Oat, Wild plant response rating (0 to 100 scale): 90
[17]; [24]
  Oat, Wild plant response rating (0 to 100 scale): 90
[18]; [23]
  Amaranth, Palmer / Pigweed, Palmer plant response rating (0 to 100 scale): 50
[18]; [24]
  Amaranth, Palmer / Pigweed, Palmer plant response rating (0 to 100 scale): 70
[19]; [23]
  Ragweed plant response rating (0 to 100 scale): 0
[19]; [24]
  Ragweed plant response rating (0 to 100 scale): 40
[20]; [23]
  Ryegrass, Italian plant response rating (0 to 100 scale): 70
[20]; [24]
  Ryegrass, Italian plant response rating (0 to 100 scale): 80
Soybean (Glycine max) [21]; [23]
  Soybean plant response rating (0 to 100 scale): 70
Soybean (Glycine max) [21]; [24]
  Soybean plant response rating (0 to 100 scale): 80
[22]; [23]
  Wheat plant response rating (0 to 100 scale): 60
[22]; [24]
  Wheat plant response rating (0 to 100 scale): 90
